IC50 data for three molecules are collected here from US8263624B2, “Aryl-substituted heterocycles, and use thereof” (Bayer Intellectual Property GmbH, priority 2006, dated 2012).

SMILES strings stand for the structures. Counter-ions that a name gives are not always drawn.

The IC50 is the midpoint of a concentration-inhibition curve.

The target of the experiment is T1, human factor Xa (Homo sapiens, UniProt P00742).
T1 construct: factor Xa, which is formed from the proenzyme factor X
T1 sequence (P00742 235-488 limits assumed): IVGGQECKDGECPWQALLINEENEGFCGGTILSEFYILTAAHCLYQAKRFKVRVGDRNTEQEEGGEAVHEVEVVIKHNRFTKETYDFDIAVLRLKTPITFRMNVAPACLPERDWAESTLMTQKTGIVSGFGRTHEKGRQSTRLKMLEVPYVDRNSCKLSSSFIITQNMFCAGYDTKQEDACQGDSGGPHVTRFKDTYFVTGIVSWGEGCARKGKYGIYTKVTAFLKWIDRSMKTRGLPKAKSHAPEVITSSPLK
T1 sequence (P00742 41-179 partner limits assumed): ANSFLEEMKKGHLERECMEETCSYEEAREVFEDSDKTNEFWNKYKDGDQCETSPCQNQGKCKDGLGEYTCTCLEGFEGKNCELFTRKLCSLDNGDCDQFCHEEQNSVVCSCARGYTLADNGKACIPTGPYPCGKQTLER
As to the kind of experiment: Determination of the factor Xa inhibition (fluorogenic substrate Boc-Ile-Glu-Gly-Arg-AMC). Format: biochemical. As to conditions: human factor Xa 1.3 nmol/l, 15 min preincubation at 22° C., substrate 5 μmol/l, pH 7.4. As to the method: • a.1) Determination of the Factor Xa Inhibition
In order to determine the factor Xa inhibition of the substances listed above, a biochemical test system is set up, in which the conversion of a factor Xa substrate is used to determine the enzymatic activity of human factor Xa. Here Factor Xa cleaves aminomethylcoumarin, whose fluorescence is measured, from the peptidic substrate. The determinations are carried out in microtitre plates.
Substances to be tested, in various concentrations, are dissolved in dimethyl sulphoxide and incubated for 15 min at 22° C. with human factor Xa (1.3 nmol/l dissolved in 50 mmol/l of Tris buffer [C,C,C-tris(hydroxymethyl)aminomethane], 100 mmol/l NaCl, 0.1% BSA [bovine serum albumin], pH 7.4). The substrate (5 μmol/l of Boc-Ile-Glu-Gly-Arg-AMC from Bachem) is then added. After an incubation time of 30 min, the sample is excited at a wavelength of 360 nm, and the emission at 460 nm is measured. The measured emissions of the test batches with test substance are compared to the control batches without test substance (only dimethyl sulphoxide instead of test substance in dimethyl sulphoxide), and IC50 values are calculated from the concentration/activity relationships.
As to `Cc1cc(-n2cc(CNC(=O)c3ccc(Cl)s3)c(-c3ccccc3)n2)ccc1N1CCOCC1=O` [Example 2, 5-Chloro-N-({1-[3-methyl-4-(3-oxomorpholin-4-yl)phenyl]-3-phenyl-1H-pyrazol-4-yl}methyl)-thiophene-2-carboxamide], half-maximal inhibition (IC50) required 0.7 nM.

Regarding `O=C(NCc1cn(-c2ccc(N3CCOCC3=O)cc2)nc1-c1cccnc1)c1ccc(Cl)s1` [Example 3, 5-Chloro-N-({1-[4-(3-oxomorpholin-4-yl)phenyl]-3-pyridin-3-yl-1H-pyrazol-4-yl}methyl)thiophene-2-carboxamide hydrochloride], half-maximal inhibition (IC50) required 0.8 nM.

Consider `O=C(NCc1cn(-c2ccc(N3CCOCC3=O)cc2)nc1-c1ccccc1)c1ccc(Cl)s1` [Example 1, 5-Chloro-N-({1-[4-(3-oxomorpholin-4-yl)phenyl]-3-phenyl-1H-pyrazol-4-yl}methyl)thiophene-2-carboxamide], for which half-maximal inhibition (IC50) was put at 0.7 nM.
